The values that follow come from US9090629B2, “Cytotoxic agents comprising new ansamitocin derivatives” (ImmunoGen, Inc., priority 2010, dated 2015).

Like-named read-outs stand apart in the source and are kept apart here.

The subject of one experiment is COLO 205 cell line. Kind of experiment: in-vitro activity of ansamitocin derivatives. The experiment is classed as cell-based, human. To be noted: 96 hour exposure; read-out: IC50 against COLO 205 cell line. As for the experimental part: (§1) All reagents were purchased from the Aldrich Chemical Co., New Jersey, or other commercial sources. Maytansinol (11) was prepared as described previously (U.S. Pat. No. 6,333,410). Nuclear Magnetic Resonance (^1H NMR) spectra were acquired on a Bruker 400 MHz instrument and mass spectra were acquired on a Bruker Daltonics Esquire 3000 instrument using electrospray ionization. In vitro cytotoxicity assays are performed as previously described (see U.S. Pat. No. 7,276,497 and W. C. Widdison et al., J. Med. Chem., 2006, 49, 4392-4408).
(§2) The KB (ATCC CCl-17) cell line is of human epithelial origin. The SK-BR-3 (ATCC HTB-30) cell line was established from a human breast adenocarcinoma. The human colon tumor cell lines COLO 205 (ATCC CCL-222) and HT-29 (ATCC HTB 38), the human melanoma cell line A-375 (ATCC CRL 1619), the human Burkitts lymphoma cell line Ramos (ATCC CRL-1596) and the human myeloid leukemia cell line HL-60 (ATCC CCL-240) were all obtained from ATCC, Maryland. Cell lines were grown in Dulbecco's modified Eagles Medium (DMEM, Biowhittaker, Walkersville, Md.) with L-glutamine supplemented with 10% fetal bovine serum (Hyclone, Logan, Utah) and 50 μg/mL gentamycin sulfate (Life Technologies, Rockville, Md.). Cells were maintained at 36-37.5° C. in a humidified atmosphere that contained 6% CO2.

The subject of another experiment is COLO 205-MDR cell line. Kind of experiment: in-vitro activity of ansamitocin derivatives. The experiment is classed as cell-based, human. Particulars: 96 hour exposure; read-out: IC50 against COLO 205-MDR cell line. As for the experimental part: as §1
The next experiment has as its system KB cell line. Kind of experiment: in-vitro activity of ansamitocin derivatives. The experiment is classed as cell-based, human.
From the text: The in vitro cytotoxicity of ansamitocin derivatives of the present invention can be measured by methods previously disclosed (U.S. Pat. No. 7,276,497 and Widdison et al., J. Med. Chem., 49; 4392, 2006, both expressly incorporated herein by reference). For example, cell lines such as the human breast carcinoma line SK-Br-3, or the human epidermoid carcinoma cell line KB, can be used for the assessment of cytotoxicity of these new ansamitocin derivatives. Cells to be evaluated are exposed to the compounds for 72 hours and the surviving fractions of cells measured in direct assays by known methods. IC50 values are calculated from the results of the assays.
as §1
The KB (ATCC CCl-17) cell line is of human epithelial origin. The SK-BR-3 (ATCC HTB-30) cell line was established from a human breast adenocarcinoma. […]

For another experiment, the system named is SK-Br-3 cells. Kind of experiment: clonogenic in vitro cytotoxicity assay. The experiment is classed as cell-based, human. To be noted: for IC50: read-out: IC50 towards SK-Br-3 cells. As for the experimental part: as §2
(§3) The cytotoxicity study was performed using a clonogenic assay. The test cell lines (KB and SK-Br-3) were plated into 6-well culture dishes at a constant number of 1000 cells per well. Cells were incubated with varying concentrations (0 to 3 nM) of the various ansamitocins or maytansine for 72 hours. The medium was then aspirated from the plates and replaced with fresh medium. Cultures were allowed to grow, and form colonies, for a total of 7-10 days after plating. The cultures were then fixed and stained with 0.2% crystal violet in 10% formalin/PBS and colonies were counted. Plating efficiency of non-treated cells (medium alone) was determined by dividing the number of colonies counted by the number of cells plated. Surviving fraction of cells exposed to the drugs was determined by dividing the number of colonies in wells that were exposed to the drug by the number of colonies in the control wells.

The subject of experiment [1] is KB cells. To be noted: literature report, cited from earlier work.
The subject of experiment [2] is KB cells. The experiment can be described thus: clonogenic in vitro cytotoxicity assay. The experiment is classed as cell-based, human. To be noted: 72 hours incubation. As for the experimental part: as §2, §3
Experiment [3] has as its system human acute lymphoblastic leukemia line CEM. To be noted: literature report; cited from earlier work.
The test system of experiment [4] is human nasopharyngeal carcinoma cells. Particulars: literature report; cited from earlier work.
The next experiment concerns L1210 cells. To be noted: L1210 cells treated in vivo; untreated control 3.2 to 5.8%; cited from earlier work.
Experiment [5] relates to L1210 mouse leukemia system. Particulars: literature report; cited from earlier work.

On to `COc1cc2cc(c1Cl)N(C)C(=O)C[C@H](OC(=O)CCCCC(=O)OCC[Si](C)(C)C)[C@]1(C)O[C@H]1[C@H](C)[C@@H]1C[C@@](O)(NC(=O)O1)[C@H](OC)/C=C/C=C(\C)C2` [14a], for which the IC50 in the experiment on COLO 205 cell line amounted to 0.4 nM; in the experiment with COLO 205-MDR cell line, 4.8 nM.

On to `COc1cc2cc(c1Cl)N(C)C(=O)CC(OC(=O)CCCCC(=O)O)C1(C)OC1C(C)C1CC(O)(NC(=O)O1)C(OC)C=CC=C(C)C2` (stereo not drawn) [14b, Hexanedioic Acid Ester of Maytansinol], for which, in the experiment on KB cell line (KB cell line), the “fold reduction in activity compared to the TMS-protected precursor 14a” value was determined as 15 fold.

Turning to `CCCCC(=O)O[C@H]1CC(=O)N(C)c2cc(cc(OC)c2Cl)C/C(C)=C/C=C/[C@@H](OC)[C@@]2(O)C[C@H](OC(=O)N2)[C@@H](C)[C@@H]2O[C@@]12C` [ansamitocin P4′], in the experiment with SK-Br-3 cells (72 hours incubation), the “fold more potent than maytansine towards SK-Br-3 cells” value is listed as 17 fold and the concentration for half-maximal inhibition (IC50) turned out to be 0.002 nM.

As for `CCC(=O)O[C@H]1CC(=O)N(C)c2cc(cc(OC)c2Cl)C/C(C)=C/C=C/[C@@H](OC)[C@@]2(O)C[C@H](OC(=O)N2)[C@@H](C)[C@@H]2O[C@@]12C` [ansamitocin bearing a C3 propionyl ester], the “fold less potent than maytansine (Kupchan et al.)” value in the experiment with KB cells [1] (KB cells) was “about 34.4 fold”. Further, the “fold more potent than maytansine towards KB cells” value in the experiment on KB cells [2] stood at 1.3 fold.

As for `COc1cc2cc(c1Cl)N(C)C(=O)C[C@H](OC(=O)CCCCCSSC)[C@]1(C)O[C@H]1[C@H](C)[C@@H]1C[C@@](O)(NC(=O)O1)[C@H](OC)/C=C/C=C(\C)C2` [compound 54, 6-(methyldithio)hexanoic acid ester of maytansinol], the half-maximal inhibitory concentration (IC50) with COLO 205 cell line stood at 0.31 nM.

In the case of `COc1cc2cc(c1Cl)N(C)C(=O)C[C@H](OC(=O)c1ccc(CSSC)cc1)[C@]1(C)O[C@H]1[C@H](C)[C@@H]1C[C@@](O)(NC(=O)O1)[C@H](OC)/C=C/C=C(\C)C2` [compound 59, 4-((methyldisulfanyl)methyl)benzoic acid ester of maytansinol], the half-maximal inhibitory concentration (IC50) in the experiment on COLO 205 cell line is 0.53 nM.

On to `COc1cc2cc(c1Cl)N(C)C(=O)C[C@H](OC(=O)CCCN(C)C)[C@]1(C)O[C@H]1[C@H](C)[C@@H]1C[C@@](O)(NC(=O)O1)[C@H](OC)/C=C/C=C(\C)C2` [compound 66, Dimethylamino Butyric Acid Ester of Maytansinol], for which the half-inhibitory concentration (IC50) in the experiment with COLO 205 cell line was 11 to 12 nM; in the experiment with COLO 205-MDR cell line, greater than 20 nM; with KB cell line (96 hour exposure, read-out: IC50 against the KB cell line), 11 to 12 nM.

Consider `COc1cc2cc(c1Cl)N(C)C(=O)C[C@H](OC(=O)[C@H](C)N(C)C(C)=O)[C@]1(C)O[C@H]1[C@H](C)[C@@H]1C[C@@](O)(NC(=O)O1)[C@H](OC)/C=C/C=C(\C)C2` [maytansine, N-acetyl-N-methyl-L-alanyl ester of maytansinol], for which, in the experiment with KB cells [1], the “IC50 towards cancer cells (Kupchan et al.)” value is listed as 0.0000061 micrograms/mL. For the same compound, the IC50 in the experiment on SK-Br-3 cells (Homo sapiens, SK-BR-3, 72 hours incubation) was 0.034 nM. Besides, the “inhibitory concentration, CEM line” value in experiment [3] is ≥ 10^−7 mg/ml. Further, the “inhibition of in vitro growth of human nasopharyngeal carcinoma cells” value in experiment [4] is listed as “active inhibitor”. Further, the “cells accumulating in mitosis” value in the experiment on L1210 cells is 67%. Further, the “inhibitory activity in vivo” value in [5] is listed as “significant inhibitory activity”.

For orientation: IC50 means the point on the concentration scale where inhibition reaches its midpoint.
